According to the Kinase Knowledgebase extract (Sharma et al. 2016):

What follows are molecules tested against MAPK14 (human) (UniProt Q16539) (assay: Inhibition of MAPK14 Kinase Activity). Conditions: not given.
Sequence of MAPK14 (human) (Q16539 whole entry, looked up): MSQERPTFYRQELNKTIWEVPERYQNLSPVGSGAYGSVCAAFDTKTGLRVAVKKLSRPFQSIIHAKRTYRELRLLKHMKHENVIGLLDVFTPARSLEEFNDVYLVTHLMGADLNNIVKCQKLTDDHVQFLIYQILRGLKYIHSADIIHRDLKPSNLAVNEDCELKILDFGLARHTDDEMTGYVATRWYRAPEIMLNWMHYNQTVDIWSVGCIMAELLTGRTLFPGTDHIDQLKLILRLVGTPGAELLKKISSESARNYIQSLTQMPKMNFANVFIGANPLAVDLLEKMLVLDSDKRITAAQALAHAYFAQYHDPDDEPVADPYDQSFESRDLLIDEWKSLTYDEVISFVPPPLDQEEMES

| IC50 | Compound |
| --- | --- |
| < 5 µM | CC1(C)C(=O)NCCN1C(=O)c1oc(C(F)(F)F)cc1NC(=O)Nc1ccc(F)c(Cl)c1Cl |
| < 5 µM | CCN(CC)CCNC(=O)CN1CCN(C(=O)c2cc(C(C)(C)C)sc2NC(=O)Nc2cccc(Cl)c2Cl)C(C)(C)C1=O |
| < 5 µM | CC(=O)N1CCN(C(=O)c2cc(C(C)(C)C)sc2NC(=O)Nc2cccc(Cl)c2Cl)CC1 |
| < 5 µM | CC(C)(C)c1cc(C(=O)N2CCNC(=O)CC2)c(NC(=O)Nc2ccc(OC(F)F)c(Cl)c2Cl)s1 |
| < 5 µM | COc1ccccc1NC(=O)Nc1sc(C(C)(C)C)cc1C(=O)N1CCNC(=O)CC1 |
| < 5 µM | COc1c(Cl)cccc1NC(=O)Nc1sc(C(C)(C)C)cc1C(=O)N1CCNC(=O)C1(C)CCO (configuration not stated) |
| < 5 µM | CC(C)(C)c1cc(C(=O)N2CCNC(=O)CC2)c(NC(=O)Nc2ccccc2C(F)(F)F)s1 |
| < 5 µM | CC(C)(C)c1cc(C(=O)N2CCN(CC(=O)NCC(O)CO)C(=O)C2(C)C)c(NC(=O)Nc2cccc(Cl)c2Cl)s1 (configuration not stated) |
| < 5 µM | CC(C)(C)c1cc(C(=O)N2CCNC(=O)C23CC3)c(NC(=O)Nc2cccc(Cl)c2Cl)s1 |
| < 5 µM | CN(C)CCN1CCN(C(=O)c2[nH]c(C(C)(C)C)cc2NC(=O)Nc2cccc(Cl)c2Cl)C(C)(C)C1=O |
| < 5 µM | CC(C)(C)c1cc(C(=O)N2CCNC(=O)C2(C)C)c(NC(=O)Nc2cccc(Cl)c2Cl)[nH]1 |
| < 5 µM | CC(C)(C)c1cc(C(=O)N2CCNC(=O)C2CC(N)=O)c(NC(=O)Nc2cccc(Cl)c2Cl)s1 (configuration not stated) |
| < 5 µM | CN(C)CCN1CCN(C(=O)c2cc(C(C)(C)C)sc2NC(=O)Nc2ccccc2C(C)(C)C)CCC1=O |
| < 5 µM | CN1CCN(C(=O)c2cc(C(C)(C)C)n(C)c2NC(=O)Nc2cccc(Cl)c2Cl)C(C)(C)C1=O |
| < 5 µM | CN(C)CCCCCN1CCN(C(=O)c2cc(C(C)(C)C)sc2NC(=O)Nc2cccc(Cl)c2Cl)C(C)(C)C1=O |
| < 5 µM | CC(C)(C)c1cc(NC(=O)Nc2cccc(Cl)c2Cl)c(C(=O)N2CCN(CC(N)=O)C(=O)C2(C)C)[nH]1 |
| < 5 µM | CN(C)CCNC(=O)CN1CCN(C(=O)c2cc(C(C)(C)C)sc2NC(=O)Nc2cccc(Cl)c2Cl)C(C)(C)C1=O |
| < 5 µM | O=C1CCN(C(=O)c2cc(Cl)c(C(F)(F)F)cc2NC(=O)Nc2cccc(Cl)c2Cl)CCN1 |
| < 5 µM | CC(C)(C)c1cc(C(=O)N2CCNC(=O)C2(C)CC(=O)O)c(NC(=O)Nc2cccc(Cl)c2Cl)s1 (configuration not stated) |
| < 5 µM | CC(C)(C)c1cc(C(=O)N2CCN(CCC(=O)O)C(=O)C2(C)C)c(NC(=O)Nc2cccc(Cl)c2Cl)s1 |
| < 5 µM | CCCNC(=O)CN1CCN(C(=O)c2cc(C(C)(C)C)sc2NC(=O)Nc2cccc(Cl)c2Cl)C(C)(C)C1=O |
| < 5 µM | CC(C)(C)c1cc(C(=O)N2CCNC(=O)C2)c(NC(=O)Nc2cccc(Cl)c2Cl)s1 |
| < 5 µM | CCC1(C)C(=O)N(CCN(C)C)CCN1C(=O)c1cc(C(C)(C)C)sc1NC(=O)Nc1ccc(F)c(Cl)c1Cl (configuration not stated) |

| IC50 | Compound |
| --- | --- |
| < 5 µM | CN(C)CCN1CCN(C(=O)c2oc(C(C)(C)C)cc2NC(=O)Nc2cccc(Cl)c2Cl)CCS1(=O)=O |
| < 5 µM | CC(C)(C)c1cc(C(=O)N2CCCC(O)C2)c(NC(=O)Nc2cccc(Cl)c2Cl)s1 (configuration not stated) |
| < 5 µM | CC(C)(C)c1cc(NC(=O)Nc2ccc(F)c(F)c2Cl)c(C(=O)N2CCNC(=O)C2(C)CCO)s1 (configuration not stated) |
| < 5 µM | CC(C)c1ccccc1NC(=O)Nc1sc(C(C)(C)C)cc1C(=O)N1CCNC(=O)CC1 |
| < 5 µM | CC(C)(C)c1cc(C(=O)N2CCNC(=O)CC2)c(NC(=O)Nc2cccnc2Cl)s1 |
| < 5 µM | COC(=O)CN1CCN(C(=O)c2[nH]c(C(C)(C)C)cc2NC(=O)Nc2cccc(Cl)c2Cl)C(C)(C)C1=O |
| < 5 µM | CN(C)CCN1CCN(C(=O)c2nc(C(C)(C)C)sc2NC(=O)Nc2cccc(Cl)c2Cl)CCC1=O |
| < 5 µM | CC(C)(C)c1cc(C(=O)N2CCNC(=O)C2(C)C)c(NC(=O)Nc2ccccc2Cl)s1 |
| < 5 µM | CC(C)(C)c1nc(C(=O)N2CCNC(=O)C2)c(NC(=O)Nc2cccc(Cl)c2Cl)s1 |
| < 5 µM | CC(C)(C)c1cc(C(=O)N2CCNC(=O)C2(C)C)c(NC(=O)Nc2ccc(C#N)c3ccccc23)s1 |
| < 5 µM | CC(C)(C)c1cc(C(=O)N2CCNC(=O)CC2)c(NC(=O)Nc2ccccc2OC(F)(F)F)s1 |
| < 5 µM | C[C@@H]1C(=O)NCCN1C(=O)c1cc(C(C)(C)C)sc1NC(=O)Nc1cccc(Cl)c1Cl |
| < 5 µM | CC(C)(C)c1cc(C(=O)N2CCNC(=O)C2(C)C)c(NC(=O)Nc2ccc(OC(F)F)c(Cl)c2Cl)s1 |
| < 5 µM | CC(C)(C)c1cc(C(=O)N2CCNC(=O)C2)c(NC(=O)Nc2ccc3c(c2)OCO3)s1 |
| < 5 µM | CN(C)CCNC(=O)CN1CCN(C(=O)c2sc(C(C)(C)C)cc2NC(=O)Nc2ccc(F)c(F)c2Cl)C(C)(C)C1=O |
| < 5 µM | CC(C)(C)c1cc(C(=O)N2CCNC(=O)CC2)c(NC(=O)Nc2ccc(Cl)c(Cl)c2Cl)s1 |
| < 5 µM | COc1ccccc1NC(=O)Nc1sc(C(C)(C)C)cc1C(=O)N1CCC(=O)N(CCN(C)C)CC1 |
| < 5 µM | CC(C)(C)c1cc(C(=O)N2CCNC(=O)CC2)c(NC(=O)Nc2ccccc2C(C)(C)C)s1 |
| < 5 µM | Cc1noc(CN2CCN(C(=O)c3cc(C(C)(C)C)sc3NC(=O)Nc3cccc(Cl)c3Cl)C(C)(CC(N)=O)C2=O)n1 (configuration not stated) |
| < 5 µM | CCOC(=O)C1(C)C(=O)NCCN1C(=O)c1cc(C(C)(C)C)sc1NC(=O)Nc1cccc(Cl)c1Cl (configuration not stated) |
| < 5 µM | CC1CC(=O)NCCN1C(=O)c1cc(C(C)(C)C)sc1NC(=O)Nc1cccc(Cl)c1Cl (configuration not stated) |
| < 5 µM | CCC1(C)C(=O)NCCN1C(=O)c1cc(C(C)(C)C)sc1NC(=O)Nc1ccc(F)cc1Cl (configuration not stated) |
| < 5 µM | CCC1(C)C(=O)N(C)CCN1C(=O)c1cc(C(C)(C)C)sc1NC(=O)Nc1cccc(Cl)c1Cl (configuration not stated) |

Same assay, conditions: concentration not given here

| inhibition | Compound |
| --- | --- |
| 0 to 25% | CC(C)(C)c1cc(C(=O)N2CCNC(=O)CC2)c(NC(=O)NC2CCNCC2)s1 |
| 51 to 75% | CC(C)(C)c1cc(C(=O)N2CCNS(=O)(=O)CC2)c(NC(=O)NC(C)(C)c2ccccc2)s1 |
| 51 to 75% | CC(C)(C)c1cc(C(=O)N2CCNC(=O)CC2)c(NC(=O)Nc2ccnc3ccccc23)s1 |
| 51 to 75% | CC(C)(C)c1cc(C(=O)N2CCNC(=O)CC2)c(NC(=O)Nc2ccc(CN)cc2)s1 |
| 76 to 100% | CC(C)(C)c1cc(C(=O)N2CCNS(=O)(=O)CC2)c(NC(=O)Nc2ccc(C#N)cc2C(F)(F)F)s1 |
| 76 to 100% | Cc1cccc(NC(=O)Nc2sc(C(C)(C)C)cc2C(=O)N2CCNC(=O)CC2)c1 |
